# From patent publication US10150743B2, “Carboxylic acid compounds” (priority 2012, dated 2018)
# Key:
# Format in all cases: cell-based
# human TLR7 = human TLR7 (Homo sapiens (Human), UniProt Q9NYK1); assay: Human TLR7 assay (SEAP reporter in HEK293); settings: SEAP induction, overnight incubation at 37° C., 0.1% DMSO; read-out: TLR7 (pEC50) (converted)
# Description: Recombinant human TLR7 was stably expressed in a HEK293 cell line already stably expressing the pNiFty2-SEAP reporter plasmid; integration of the reporter gene was maintained by selection with the antibiotic zeocin. The most common variant sequence of human TLR7 (represented by the EMBL sequence AF240467) was cloned into the mammalian cell expression vector pUNO and transfected into this reporter cell-line. Transfectants with stable expression were selected using the antibiotic blasticidin. In this reporter cell-line, expression of secreted alkaline phosphatase (SEAP) is controlled by an NFkB/ELAM-1 composite promoter comprising five NFkB sites combined with the proximal ELAM-1 promoter. TLR signaling leads to the translocation of NFkB and activation of the promoter results in expression of the SEAP gene. TLR7-specific activation was assessed by determining the level of SEAP produced following overnight incubation of the cells at 37° C. with the standard compound in the presence of 0.1% (v/v) dimethylsulfoxide (DMSO). Concentration dependent induction of SEAP production by compounds was expressed as the concentration of compound which produced half of the maximal level of SEAP induction for that compound (EC50).
# human TLR8 = human TLR8 (Homo sapiens (Human), UniProt Q9NR97); assay: Human TLR8 assay (TLR8/NF-kB/SEAPorter HEK 293 Cell Line); settings: SEAP induction, overnight incubation at 37° C., 0.1% DMSO; read-out: TLR8 pEC50 (converted)
# Description: TLR8/NF-kB/SEAPorter™ HEK 293 Cell Line (Imgenex Corporation) is a stably co-transfected cell line which expresses full-length human TLR8 and the secreted alkaline phosphatase (SEAP) reporter gene under the transcriptional control of an NF-κB response element. TLR8 expression in this cell line has been tested by flow cytometry. Transfectants with stable expression were selected using the antibiotic blasticidin and geneticin. TLR signaling leads to the translocation of NF-κB and activation of the promoter results in expression of the SEAP gene. TLR8-specific activation was assessed by determining the level of SEAP produced following overnight incubation of the cells at 37° C. with the standard compound in the presence of 0.1% (v/v) dimethylsulfoxide (DMSO). Concentration dependent induction of SEAP production by compounds was expressed as the concentration of compound which produced half of the maximal level of SEAP induction for that compound (EC50).
# hERG potassium channel = hERG potassium channel (Homo sapiens (Human), UniProt Q12809); assay: hERG Analysis - Method 2 (QPATCH HT, CHO-hERG cells); settings: half-maximal inhibition concentration, 22±2° C.
# Protocol: The hERG potassium current was measured in a hERG-stably-expressing Chinese hamster ovary K1 (CHO) cells. The experiments were performed using an automated planar patch-clamp system QPATCH HT (Sophion Bioscience A/S). The application of pressure for forming gigaseals and whole-cell patch clamp configuration were established using the QPATCH assay software. Patch-clamp experiments were performed in voltage-clamp mode and whole-cell currents were recorded from individual cells. The following stimulation protocol was applied to investigate the effects of compounds on hERG potassium channel: The membrane potential was held at −80 mV and repetitively (every 15 s) depolarized to +20 mV for 5 s after the pulse to −50 mV for 20 ms served to define the baseline, followed by repolarizing step to −50 mV for 5 s to evaluate of the tail current amplitude. Experiments were conducted at room temperature (22±2° C.).
# Effects of compounds were determined from cumulative applications of increasing 4 concentrations and calculated as percent of blocked current. The data points were fitted with Hill equation to calculate half-maximal inhibition concentrations. The test solution includes: Extracellular solution (mM): 2 mM of CaCl2, 1 mM of MgCl2, 10 mM of HEPES, 4 mM of KCl, 145 mM of NaCl, and 10 mM of Glucose; and Intracellular solution (mM): 5.4 mM of CaCl2, 1.8 mM of MgCl2, 10 mM of HEPES, 31 mM of KOH, 10 mM of EGTA, 120 mM of KCl, and 4 mM of ATP.
# human TLR7, sequence (Q9NYK1 27-1049): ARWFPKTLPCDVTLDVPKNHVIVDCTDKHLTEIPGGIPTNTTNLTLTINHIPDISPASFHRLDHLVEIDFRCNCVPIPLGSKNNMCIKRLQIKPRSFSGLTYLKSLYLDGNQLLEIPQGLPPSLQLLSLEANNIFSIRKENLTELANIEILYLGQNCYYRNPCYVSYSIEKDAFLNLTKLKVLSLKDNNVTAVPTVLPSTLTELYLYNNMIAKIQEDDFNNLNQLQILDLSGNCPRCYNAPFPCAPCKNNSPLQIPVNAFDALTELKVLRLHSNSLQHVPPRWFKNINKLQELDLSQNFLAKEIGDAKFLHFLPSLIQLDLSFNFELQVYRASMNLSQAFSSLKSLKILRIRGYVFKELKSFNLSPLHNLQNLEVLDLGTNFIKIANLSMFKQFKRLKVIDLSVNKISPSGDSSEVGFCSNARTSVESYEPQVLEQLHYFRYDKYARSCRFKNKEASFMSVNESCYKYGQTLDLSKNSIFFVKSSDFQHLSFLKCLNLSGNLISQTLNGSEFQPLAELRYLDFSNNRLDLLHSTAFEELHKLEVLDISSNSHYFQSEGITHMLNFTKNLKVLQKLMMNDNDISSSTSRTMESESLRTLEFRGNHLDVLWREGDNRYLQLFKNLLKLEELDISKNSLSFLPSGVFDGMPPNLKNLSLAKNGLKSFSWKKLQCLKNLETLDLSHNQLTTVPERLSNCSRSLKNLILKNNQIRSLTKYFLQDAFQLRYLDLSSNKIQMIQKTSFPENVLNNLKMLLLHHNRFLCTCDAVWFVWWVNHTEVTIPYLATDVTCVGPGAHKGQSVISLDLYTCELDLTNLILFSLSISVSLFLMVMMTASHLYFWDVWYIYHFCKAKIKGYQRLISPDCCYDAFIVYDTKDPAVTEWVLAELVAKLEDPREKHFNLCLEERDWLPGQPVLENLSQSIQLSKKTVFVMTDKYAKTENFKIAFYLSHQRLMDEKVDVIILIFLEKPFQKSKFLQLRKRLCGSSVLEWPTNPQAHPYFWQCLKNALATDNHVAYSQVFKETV
# human TLR8, sequence (Q9NR97 27-1041): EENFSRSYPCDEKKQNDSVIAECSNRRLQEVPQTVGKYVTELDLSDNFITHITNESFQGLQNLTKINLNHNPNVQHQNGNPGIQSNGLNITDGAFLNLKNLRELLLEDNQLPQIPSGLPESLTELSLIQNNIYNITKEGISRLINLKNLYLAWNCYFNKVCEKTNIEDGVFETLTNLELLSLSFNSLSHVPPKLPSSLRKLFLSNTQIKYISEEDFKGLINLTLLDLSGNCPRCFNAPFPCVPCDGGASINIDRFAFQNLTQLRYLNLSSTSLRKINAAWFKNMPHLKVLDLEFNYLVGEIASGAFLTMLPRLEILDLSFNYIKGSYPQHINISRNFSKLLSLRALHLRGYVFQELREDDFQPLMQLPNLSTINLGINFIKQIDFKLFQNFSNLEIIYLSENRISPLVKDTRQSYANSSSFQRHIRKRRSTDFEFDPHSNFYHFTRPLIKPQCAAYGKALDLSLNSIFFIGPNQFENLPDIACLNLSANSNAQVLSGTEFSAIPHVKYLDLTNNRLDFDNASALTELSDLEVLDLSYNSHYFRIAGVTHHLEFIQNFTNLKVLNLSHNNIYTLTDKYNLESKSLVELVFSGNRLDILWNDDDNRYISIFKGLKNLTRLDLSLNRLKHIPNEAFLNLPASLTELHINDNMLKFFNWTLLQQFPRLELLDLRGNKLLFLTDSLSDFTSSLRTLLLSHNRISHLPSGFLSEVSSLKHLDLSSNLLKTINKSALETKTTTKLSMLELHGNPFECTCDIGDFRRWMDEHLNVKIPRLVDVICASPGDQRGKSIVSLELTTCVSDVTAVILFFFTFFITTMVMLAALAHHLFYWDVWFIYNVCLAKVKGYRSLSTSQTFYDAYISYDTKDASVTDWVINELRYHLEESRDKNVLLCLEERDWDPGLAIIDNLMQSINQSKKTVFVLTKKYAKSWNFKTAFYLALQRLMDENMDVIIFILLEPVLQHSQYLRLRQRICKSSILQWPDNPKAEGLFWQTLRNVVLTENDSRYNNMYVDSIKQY
# hERG potassium channel, sequence (Q12809 whole entry): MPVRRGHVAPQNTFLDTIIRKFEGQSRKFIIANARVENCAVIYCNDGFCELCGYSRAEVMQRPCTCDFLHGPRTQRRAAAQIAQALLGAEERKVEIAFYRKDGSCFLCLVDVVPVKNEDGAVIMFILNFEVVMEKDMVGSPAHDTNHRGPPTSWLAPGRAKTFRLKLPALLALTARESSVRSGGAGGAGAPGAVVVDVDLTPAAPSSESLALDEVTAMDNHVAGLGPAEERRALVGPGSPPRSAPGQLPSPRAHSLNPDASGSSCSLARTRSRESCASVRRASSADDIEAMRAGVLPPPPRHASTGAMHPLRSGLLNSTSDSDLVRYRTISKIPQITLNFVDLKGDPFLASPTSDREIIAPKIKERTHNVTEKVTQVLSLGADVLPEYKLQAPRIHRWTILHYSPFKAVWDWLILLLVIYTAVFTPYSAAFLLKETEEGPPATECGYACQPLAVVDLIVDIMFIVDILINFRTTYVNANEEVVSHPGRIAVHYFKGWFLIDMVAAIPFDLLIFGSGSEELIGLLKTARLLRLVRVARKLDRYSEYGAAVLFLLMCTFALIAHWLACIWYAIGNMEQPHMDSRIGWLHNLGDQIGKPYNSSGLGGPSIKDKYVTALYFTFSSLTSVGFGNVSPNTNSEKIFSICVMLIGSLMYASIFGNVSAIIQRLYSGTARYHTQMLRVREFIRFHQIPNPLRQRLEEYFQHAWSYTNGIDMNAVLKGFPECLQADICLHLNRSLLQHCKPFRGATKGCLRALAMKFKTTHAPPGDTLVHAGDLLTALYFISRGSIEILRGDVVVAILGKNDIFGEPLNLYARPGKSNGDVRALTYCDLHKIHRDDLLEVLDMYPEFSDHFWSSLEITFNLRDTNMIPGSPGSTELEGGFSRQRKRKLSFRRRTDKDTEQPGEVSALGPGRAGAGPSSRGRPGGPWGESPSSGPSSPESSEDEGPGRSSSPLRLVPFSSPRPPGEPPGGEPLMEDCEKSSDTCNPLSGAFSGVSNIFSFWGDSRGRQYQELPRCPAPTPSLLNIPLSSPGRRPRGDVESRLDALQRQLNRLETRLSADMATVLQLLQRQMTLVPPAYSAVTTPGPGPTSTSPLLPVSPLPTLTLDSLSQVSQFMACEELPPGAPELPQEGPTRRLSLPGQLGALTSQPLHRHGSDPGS
compound,measurement,setting,value
"CCC[C@@H](CCO)Nc1nc(N)nc(C)c1Cc1ccc(CN(CC(=O)O)CC(F)F)cc1OC [Example 3, (S)-2-((4-((2-amino-4-(1-hydroxyhexan-3-ylamino)-6-methylpyrimidin-5-yl)methyl)-3-methoxybenzyl)(2,2-difluoroethyl)amino)acetic acid]",EC50,human TLR7,0.0794 µM
same,EC50,human TLR8,> 10 µM
same,IC50,hERG potassium channel,> 10 µM
